{"source": "patent US20250320215A1", "about": "“SALTS OF N-[4-(4-[[2-(DIMETHYLAMINO)ETHYL]AMINO]-3-METHYL-1H-PYRAZOLO[3,4-D]PYRIMIDIN-6-YL)-2-FLUOROPHENYL]-2,5-DIFLUOROBENZENESULFONAMIDE AND CRYSTALLINE FORMS THEREOF” (THRYV THERAPEUTICS INC, priority 2022, published 2025)", "type_in_all_cases": "physicochemical", "key": {"[1]": {"assay": "Estimated solubility by solvent addition method via visual assessment", "conditions": "thermodynamic from solid, room temperature, read-out: Solubility", "method": "Solubility of Compound 3 Form B was estimated in 30 solvents at room temperature and in 9 organic solvents at 70° C. using solvent addition method via visual assessment.\nProtocol: about 3 mg of Compound 3 Form B was weighed into a sample vial and the solvent was added gradually with vortex until the drug solution was clear by observation or a total of 2 mL solvent was added. Then, the estimated solubility (mg/mL) was calculated.\nSolubility of Compound 4, Form B was estimated in 18 solvents at room temperature using solvent addition method via visual assessment. About 3 mg of Compound 4, Form B was weighed into a sample vial and the solvent was added gradually with vortex until the solution was clear by observation or a total of 2 mL solvent was added. Then, the estimated solubility (mg/mL) was calculated."}, "[2]": {"assay": "Dynamic vapor sorption/desorption (DVS) with post-DVS XRPD", "method": "Moisture sorption/desorption data were collected on a DVS Intrinsic. 7-20 mg of a sample was placed into a tared sample chamber and automatically weighed. The anhydrates were analyzed with the following setting parameters:\nDVS experiments (FIGS. 17, 19, 21, 34, 35, 48 and 50) and XRPD post-DVS experiments (FIGS. 18, 20, 22, 36, 49 and 51) were conducted in order to study the deliquescence behaviour of the crystalline salts upon expose to humidity."}, "[3]": {"assay": "Water activity study (competition of forms, XRPD)", "conditions": "room temperature", "method": "Water activity study was performed using Compound 3 Form B (anhydrate) as the input material in EtOH/Water with different water content at RT. About 5 mg of Compound 3, Form B was used to prepare saturated solutions and the solutions were filtered by syringe at RT. 5 mg of Compound 3, Form D were added in the 1 mL of filtrate, and the suspension was slurried at RT for 3 and 7 days. The solids collected after filtration were analyzed by XRPD.\nProtocol: excess amount of Compound 4 Form B was used to prepare saturated solutions. 6-8 mg each of Compound 4 Form B and Form D were added in the solutions. The suspension was slurried at room temperature for the corresponding times. Residual solids were collected by filtration with syringe filter, and characterized by XRPD."}, "[4]": {"assay": "Solid stability testing (HPLC purity and XRPD)", "method": "HPLC analysis were performed with an Agilent HPLC 1260 series instrument. HPLC method for stability testing is as follows:\nSolid stability testing of Compound 3, Form D was evaluated at the conditions of 60° C. (capped) and 40° C./75% RH (open) for 7 days. Polymorphic form and purity were analyzed by XRPD and HPLC, respectively. […] (capped) and 40° C./75% RH (open) for 7 days.\nSolid stability testing of Compound 4 Form B and Form D were evaluated at the conditions of 60° C. (vial close) and 40° C./75% RH (vial open) for 7 days. Polymorphic form and purity were checked by XRPD and HPLC, respectively."}, "[5]": {"assay": "Slurry study evaluated by XRPD", "method": "About 20 mg of Compound 3, Form B was weighed into a sample vial and then 1 mL of solvent was added to make a suspension. The suspension was stirred at room temperature or 50° C. for 3 days and 11 days. Then, the wet solid was collected by filtration and analyzed by XRPD.\n20-30 mg of Compound 4 Form B was added in 1 mL of selected solvents at room temperature or 50° C. The suspension was slurried at room temperature or 50° C. for 3 days and 11 days. The wet solids collected from filtration were examined by XRPD. There were four crystal forms obtained by slurrying, including di-mesylate Forms B, C and D as well as mono-mesylate Form G."}, "[6]": {"conditions": "slurry in ACN/Water (9/1, v/v) at RT"}}, "note": "Where two headings read alike, the source gives them in different places."}
{"smiles": "Cc1n[nH]c2nc(-c3ccc(NS(=O)(=O)c4cc(F)ccc4F)c(F)c3)nc(NCCN(C)C)c12", "note": "[Compound 4 Form B]", "values": [{"measurement": "solubility", "setting": "[1]; organic solvent or mixture, 2-Me THF", "value": "< 1500", "unit": "µg/mL"}, {"measurement": "solubility", "setting": "[1]; organic solvent or mixture, ACN", "value": "< 1500", "unit": "µg/mL"}, {"measurement": "solubility", "setting": "[1]; organic solvent or mixture, ACN/Water (9/1, v/v)", "value": "15000 to 20000", "unit": "µg/mL"}, {"measurement": "solubility", "setting": "[1]; organic solvent or mixture, Acetone", "value": "< 1500", "unit": "µg/mL"}, {"measurement": "solubility", "setting": "[1]; organic solvent or mixture, DCM", "value": "< 1500", "unit": "µg/mL"}, {"measurement": "solubility", "setting": "[1]; organic solvent or mixture, DMA", "value": "75000 to 150000", "unit": "µg/mL"}, {"measurement": "solubility", "setting": "[1]; organic solvent or mixture, DMSO", "value": "> 150000", "unit": "µg/mL"}, {"measurement": "solubility", "setting": "[1]; organic solvent or mixture, EA", "value": "< 1500", "unit": "µg/mL"}, {"measurement": "solubility", "setting": "[1]; organic solvent or mixture, EtOH", "value": "3750 to 7500", "unit": "µg/mL"}, {"measurement": "solubility", "setting": "[1]; organic solvent or mixture, IPA", "value": "< 1500", "unit": "µg/mL"}, {"measurement": "solubility", "setting": "[1]; organic solvent or mixture, IPAC", "value": "< 1500", "unit": "µg/mL"}, {"measurement": "solubility", "setting": "[1]; organic solvent or mixture, MEK", "value": "< 1500", "unit": "µg/mL"}, {"measurement": "solubility", "setting": "[1]; organic solvent or mixture, MTBE", "value": "< 1500", "unit": "µg/mL"}, {"measurement": "solubility", "setting": "[1]; organic solvent or mixture, MeOH", "value": "12000 to 20000", "unit": "µg/mL"}, {"measurement": "solubility", "setting": "[1]; organic solvent or mixture, MeOH/Water (9/1, v/v)", "value": "75000 to 150000", "unit": "µg/mL"}, {"measurement": "solubility", "setting": "[1]; organic solvent or mixture, NMP", "value": "> 150000", "unit": "µg/mL"}, {"measurement": "solubility", "setting": "[1]; organic solvent or mixture, THF", "value": "< 1500", "unit": "µg/mL"}, {"measurement": "solubility", "setting": "[1]; Water", "value": "75000 to 150000", "unit": "µg/mL"}, {"measurement": "Comments: hygroscopicity (DVS)", "setting": "[2]", "value": "Hygroscopic"}, {"measurement": "hygroscopicity", "setting": "[2]", "value": "hygroscopic"}, {"measurement": "Post-DVS XRPD", "setting": "[2]; XRPD after DVS versus before", "value": "No change"}, {"measurement": "wt % gain (DVS)", "setting": "[2]; at 80% RH (25° C.)", "value": 9.16, "unit": "wt %"}, {"measurement": "water uptake (DVS)", "setting": "[2]; at 80% RH, 25° C.", "value": 9.16, "unit": "%"}, {"measurement": "Reversibility (DVS)", "setting": "[2]; sorption/desorption", "value": "Reversible"}, {"measurement": "water activity (aw) at which the form is stable / the most stable form", "setting": "[3]", "value": "≤ 0.08"}, {"measurement": "Solid stability", "setting": "[4]; 40° C./75% RH (open), day 7", "value": "partially converted to Form D"}, {"measurement": "Solid stability", "setting": "[4]; 60° C. (close), 7 days", "value": "chemically and physically stable"}, {"measurement": "Purity, Initial T0", "setting": "[4]; HPLC, before storage", "value": 99.47, "unit": "%"}, {"measurement": "Purity - 7 days, 60° C.", "setting": "[4]; HPLC, capped/closed vial, 7 days", "value": 99.41, "unit": "%"}, {"measurement": "Purity - 7 days, 40° C./75% RH", "setting": "[4]; HPLC, open, 7 days", "value": 99.18, "unit": "%"}, {"measurement": "XRPD, Initial T0", "setting": "[4]; before storage", "value": "Form B"}, {"measurement": "XRPD - 7 days, 60° C.", "setting": "[4]; capped/closed vial, 7 days", "value": "Form B"}, {"measurement": "XRPD Result Day 3/Wet", "setting": "[5]; slurry in 2-Me THF at 50° C.", "value": "Form D"}, {"measurement": "XRPD Result Day 11/Wet", "setting": "[5]; slurry in 2-Me THF at 50° C.", "value": "Form D"}, {"measurement": "XRPD Result Day 3/Wet", "setting": "[5]; slurry in 2-Me THF at RT", "value": "Form D"}, {"measurement": "XRPD Result Day 11/Wet", "setting": "[5]; slurry in 2-Me THF at RT", "value": "Form D"}, {"measurement": "XRPD Result Day 3/Wet", "setting": "[5]; slurry in ACN at 50° C.", "value": "Form B"}, {"measurement": "XRPD Result Day 11/Wet", "setting": "[5]; slurry in ACN at 50° C.", "value": "Form B"}, {"measurement": "XRPD Result Day 3/Wet", "setting": "[5]; slurry in ACN at RT", "value": "Form B"}, {"measurement": "XRPD Result Day 11/Wet", "setting": "[5]; slurry in ACN at RT", "value": "Form B"}, {"measurement": "XRPD Result Day 3/Wet", "setting": "[5]; [6]", "value": "Form D"}, {"measurement": "XRPD Result Day 11/Wet", "setting": "[5]; [6]", "value": "Form D"}, {"measurement": "XRPD Result Day 3/Wet", "setting": "[5]; slurry in Acetone at 50° C.", "value": "Form C"}, {"measurement": "XRPD Result Day 11/Wet", "setting": "[5]; slurry in Acetone at 50° C.", "value": "Form D"}, {"measurement": "XRPD Result Day 11/Wet", "setting": "[5]; slurry in Acetone at RT", "value": "Form D"}, {"measurement": "XRPD Result Day 3/Wet", "setting": "[5]; slurry in DCM at 50° C.", "value": "Form B"}, {"measurement": "XRPD Result Day 3/Wet", "setting": "[5]; slurry in DCM at RT", "value": "Form D"}, {"measurement": "XRPD Result Day 11/Wet", "setting": "[5]; slurry in DCM at RT", "value": "Form D"}, {"measurement": "XRPD Result Day 3/Wet", "setting": "[5]; slurry in EA at 50° C.", "value": "Form D"}, {"measurement": "XRPD Result Day 11/Wet", "setting": "[5]; slurry in EA at 50° C.", "value": "Form D"}, {"measurement": "XRPD Result Day 11/Wet", "setting": "[5]; slurry in EA at RT", "value": "Form D"}, {"measurement": "XRPD Result Day 3/Wet", "setting": "[5]; slurry in EtOH at RT", "value": "Form D"}, {"measurement": "XRPD Result Day 11/Wet", "setting": "[5]; slurry in EtOH at RT", "value": "Form D"}, {"measurement": "XRPD Result Day 3/Wet", "setting": "[5]; slurry in IPA at 50° C.", "value": "Form D"}, {"measurement": "XRPD Result Day 11/Wet", "setting": "[5]; slurry in IPA at 50° C.", "value": "Form D"}, {"measurement": "XRPD Result Day 3/Wet", "setting": "[5]; slurry in IPA at RT", "value": "Form D"}, {"measurement": "XRPD Result Day 11/Wet", "setting": "[5]; slurry in IPA at RT", "value": "Form D"}, {"measurement": "XRPD Result Day 3/Wet", "setting": "[5]; slurry in IPAC at 50° C.", "value": "Form D"}, {"measurement": "XRPD Result Day 11/Wet", "setting": "[5]; slurry in IPAC at 50° C.", "value": "Form D"}, {"measurement": "XRPD Result Day 3/Wet", "setting": "[5]; slurry in IPAC at RT", "value": "Form D"}, {"measurement": "XRPD Result Day 11/Wet", "setting": "[5]; slurry in IPAC at RT", "value": "Form D"}, {"measurement": "XRPD Result Day 3/Wet", "setting": "[5]; slurry in MEK at 50° C.", "value": "Form D"}, {"measurement": "XRPD Result Day 11/Wet", "setting": "[5]; slurry in MEK at 50° C.", "value": "Form D"}, {"measurement": "XRPD Result Day 3/Wet", "setting": "[5]; slurry in MEK at RT", "value": "Form D"}, {"measurement": "XRPD Result Day 11/Wet", "setting": "[5]; slurry in MEK at RT", "value": "Form D"}, {"measurement": "XRPD Result Day 3/Wet", "setting": "[5]; slurry in MTBE at 50° C.", "value": "Form D"}, {"measurement": "XRPD Result Day 11/Wet", "setting": "[5]; slurry in MTBE at RT", "value": "Form D"}, {"measurement": "XRPD Result Day 3/Wet", "setting": "[5]; slurry in MeOH at RT", "value": "Form B"}, {"measurement": "XRPD Result Day 11/Wet", "setting": "[5]; slurry in MeOH at RT", "value": "Form B"}, {"measurement": "XRPD Result Day 3/Wet", "setting": "[5]; slurry in THF at 50° C.", "value": "Form C"}, {"measurement": "XRPD Result Day 3/Wet", "setting": "[5]; slurry in THF at RT", "value": "Form C"}, {"measurement": "XRPD Result Day 11/Wet", "setting": "[5]; slurry in THF at RT", "value": "Form D"}, {"measurement": "XRPD Result", "setting": "[5]; slurry in Water at RT or 50° C. for 3 days", "value": "Mono-mesylate Form G was obtained."}]}
